Test results from the supplement of paper PMC11451515.

Experiments:
Experiment in all cases: AUC of viability dose-response curve (% viability x log10 dose units); higher = less sensitive
Settings in all cases: 48 h
SEM cells = test system: SEM cells
Outline: (§1)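 In 1536-well plates, leukemia cells adapted to each medium (500 or 1000 cells/well) were exposed for 48 h at 37°C to library compounds in DMSO across 11 threefold doses, 47 μM down to 0.79 nM. Viability was read by CellTiter-Glo One luminescence and normalised per plate to DMSO and cell-free wells. A four-parameter log-logistic fit over log10 doses was integrated by trapezoidal rule. This yielded the area under the curve, with over-full-viability curves scaled and quality-control failures dropped.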

P12-Ichikawa = test system: P12-Ichikawa
Outline: as §1

NOMO1 = test system: NOMO1
Outline: as §1

[1] = RPMI 5 mM glucose + 10% dialyzed FBS

SMILES | AUC of viability dose-response curve (SEM cells; HPLM + 10% dialyzed FBS) | AUC of viability dose-response curve (SEM cells; RPMI 5 mM glucose + 10% FBS) | AUC of viability dose-response curve (SEM cells; [1]) | AUC of viability dose-response curve (P12-Ichikawa; HPLM + 10% dialyzed FBS) | AUC of viability dose-response curve (P12-Ichikawa; RPMI 5 mM glucose + 10% FBS) | AUC of viability dose-response curve (P12-Ichikawa; [1]) | AUC of viability dose-response curve (NOMO1; HPLM + 10% dialyzed FBS) | AUC of viability dose-response curve (NOMO1; RPMI 5 mM glucose + 10% FBS) | AUC of viability dose-response curve (NOMO1; [1])
C[C@H]1C[C@H]2[C@@H]3CCC4=CC(=O)C=C[C@]4(C)[C@H]3C(=O)C[C@]2(C)[C@@]1(O)C(=O)CO | 390 | 366 | 401 | 443 | 454 | 402 | 442 | 407 | 394
O=[S+]([O-])(/N=C/c1c(O)ccc2ccccc12)c1cccs1 | 442 | 428 | 440 | 464 | 465 | 468 | 443 | 472 | 455
CN(C)/[N+]([O-])=N/Oc1cc(ON[N+](=O)N2CCN(C(=O)c3cc(Cc4n[nH]c(=O)c5ccccc45)ccc3F)CC2)c([N+](=O)[O-])cc1[N+](=O)[O-] | 444 | 446 | 448 | 467 | 469 | 466 | 438 | 460 | 441
O=C([O-])[C@H](CC(=O)N1C[C@H]2CCCC[C@H]2C1)Cc1ccccc1 | 395 | 418 | 374 | 445 | 442 | 471 | 465 | 440 | 448
CN(c1nccc(=O)[nH]1)C1CCN(c2nc3ccccc3n2Cc2ccc(F)cc2)CC1 | 474 | 424 | 473 | 466 | 460 | 462 | 466 | 459 | 471
C/C(=C\c1csc(C)n1)[C@@H]1C[C@@H]2O[C@@H]2CCC[C@H](C)[C@H](O)[C@@H](C)C(=O)C(C)(C)[C@@H](O)CC(=O)O1 |  |  |  |  |  |  | 146 | 93 | 138
C[N+](C)(C)CC(=O)O.[Cl-] | 373 | 374 | 391 | 442 | 446 | 411 | 432 | 398 | 416
C/C(=C\c1csc(C)n1)[C@@H]1C[C@@H]2O[C@]2(C)CCC[C@H](C)[C@H](O)[C@@H](C)C(=O)C(C)(C)[C@@H](O)CC(=O)O1 | 104 | 74.6 | 95.4 | 139 | 120 | 184 | 138 | 82 | 114
COC1=CC(=CC=C1)C2=CC=C(NC(=O)/C3=C(/CCC3)C(O)=O)C(=C2)F | 465 | 461 | 447 | 444 | 436 | 431 | 428 | 469 | 457
Cn1c(=O)c2[nH]cnc2n(C)c1=O | 474 | 454 | 477 | 473 | 463 | 468 | 464 | 454 | 457
O=C(NCCCNc1nc(Nc2cccc(NC(=O)N3CCCC3)c2)ncc1I)c1cccs1 |  |  |  | 407 | 400 | 401 | 375 | 381 | 384
CC1(C)Cc2c(sc(NC(=S)NC(=O)c3ccccc3)c2C(=O)O)CO1 | 452 | 474 | 427 | 469 | 476 | 470 | 466 | 456 | 458
C[C@@H](NCc1cc2ccccc2[nH]1)c1cccc2ccccc12 | 409 | 406 | 413 | 441 | 434 | 414 | 443 | 428 | 449
C=C[C@H]1CN2CCC1C[C@@H]2[C@@H](O)c1ccnc2ccccc12 (stereo not given in full) | 448 | 435 | 451 | 443 | 436 | 429 | 453 | 422 | 420
CN1/C=C(\N=C(NC2=CC=C(C=C2)C(=O)N3CCOCC3)/C1=O)/C4=C(C)C(=CC=C4)NC(=O)C5=CC=C(C=C5)C(C)(C)C | 468 | 443 | 458 | 458 | 466 | 467 | 466 | 430 | 454
O=C(C1CC1)N1CC[C@@H](Cn2c(-c3ccc(-c4ccc5occc5c4)cc3)nc3cnccc32)C1 | 457 | 465 | 462 | 461 | 470 | 469 | 469 | 456 | 468
COc1nccc(-c2c(-c3ccc(F)cc3)ncn2C2CCC(O)CC2)n1 (stereo not given) | 459 | 320 | 438 | 443 | 465 | 462 | 463 | 458 | 465
O=C(O)CCNc1cc(N2CCc3ccccc3CC2)nc(-c2ccccn2)n1 | 463 | 434 | 463 | 463 | 454 | 459 | 448 | 456 | 452
CCc1ccc(C(=O)Nc2cc(CN3CCN(C)CC3)cc(C(F)(F)F)c2)cc1C#Cc1cnc2ccnn2c1 | 449 | 453 | 451 | 459 | 454 | 415 | 459 | 460 | 477
Oc1cc2c(cc1O)C1c3ccc(O)c(O)c3OCC1(O)C2 (stereo not given) | 430 | 441 | 447 | 461 | 449 | 469 | 456 | 464 | 459
CC[C@H](NC(C)C)[C@H](O)c1ccc(O)c2[nH]c(=O)ccc12 | 442 | 472 | 474 | 451 | 462 | 456 | 470 | 447 | 463
O=C(O)CSCC(=O)NC1CCSC1=O (stereo not given) | 451 | 456 | 464 | 466 | 469 | 463 | 471 | 476 | 476
Cn1cc(-c2cnn3c(N)c(Br)c([C@@H]4CCCNC4)nc23)cn1 | 300 | 344 | 289 | 358 | 342 | 339 | 352 | 322 | 314
CCc1c(O)cc(O)c(C(=O)c2ccc(OCCN3CCOCC3)c(OC)c2)c1CC(=O)N(CCOC)CCOC | 383 | 347 | 355 | 399 | 384 | 383 | 359 | 367 | 375

SMILES | AUC of viability dose-response curve (SEM cells; HPLM + 10% dialyzed FBS) | AUC of viability dose-response curve (SEM cells; RPMI 5 mM glucose + 10% FBS) | AUC of viability dose-response curve (SEM cells; [1]) | AUC of viability dose-response curve (P12-Ichikawa; HPLM + 10% dialyzed FBS) | AUC of viability dose-response curve (P12-Ichikawa; RPMI 5 mM glucose + 10% FBS) | AUC of viability dose-response curve (P12-Ichikawa; [1]) | AUC of viability dose-response curve (NOMO1; HPLM + 10% dialyzed FBS) | AUC of viability dose-response curve (NOMO1; RPMI 5 mM glucose + 10% FBS) | AUC of viability dose-response curve (NOMO1; [1])
CCOC(CN1C(=O)[C@](CC(=O)Nc2ccc(C)cc2)(NC(=O)Nc2ccc(C)cc2)c2ccccc21)OCC | 447 | 437 | 466 | 458 | 461 | 460 | 448 | 460 | 458
O=C(Nc1ccc([N+](=O)[O-])cc1Cl)c1cc(Cl)ccc1O | 369 | 336 | 370 | 386 | 368 | 335 | 375 | 363 | 372
CN(CCOc1ccc(NS(C)(=O)=O)cc1)CCc1ccc(NS(C)(=O)=O)cc1 | 444 | 463 | 447 | 469 | 465 | 464 | 451 | 455 | 463
CCC(=O)OC1CCC2C3CCC/4=C/C(=O)CC[C@@]4(C)C3CC[C@]12C (stereo not given in full) | 450 | 460 | 448 | 471 | 473 | 466 | 457 | 456 | 458
CN[C@H]1[C@H](O[C@@H]2[C@H](O[C@@H]3[C@@H](O)[C@@H](O)[C@@H](NC(=N)N)[C@@H](O)[C@H]3NC(=N)N)O[C@H](C)[C@@]2(O)C=O)O[C@@H](CO)[C@@H](O)[C@H]1O | 386 | 432 | 455 | 452 | 450 | 424 | 412 | 456 | 449
CCOc1cc(/C=C2/C(=O)N(c3ccccc3)N=C2C)cc(Cl)c1OCC(=O)OC | 386 | 422 | 383 | 424 | 408 | 418 | 432 | 413 | 425
Cc1cc(SCc2sc(-c3ccc(C(F)(F)F)cc3)nc2C)ccc1OCC(=O)O | 453 | 459 | 457 | 471 | 459 | 458 | 447 | 443 | 463
CN1\N=N/C2=C(N=C[N]2C1=O)C(N)=O | 331 | 318 | 306 | 466 | 466 | 452 | 445 | 458 | 450
CO[C@@H]1[C@@H](OC(N)=O)[C@@H](O)[C@H](OC2=CC=C3\C(=C(NC(=O)C4=CC=C([O-])C(=C4)CC=C(C)C)/C(=O)OC3=C2C)O)OC1(C)C | 476 | 445 | 461 | 449 | 465 | 464 | 437 | 451 | 437
CCc1cccc2c3c([nH]c12)C(CC)(CC(=O)O)OCC3 (stereo not given) | 454 | 409 | 448 | 466 | 448 | 465 | 452 | 441 | 427
FC(F)(F)C1=CC=C2C(SCCCCCO\C3=C\O\C(CN4CCOCC4)=C/C3=O)=CC=NC2=C1 |  |  |  | 464 | 457 | 461 | 470 | 477 | 469
COCCCOc1ccnc(C[S+]([O-])c2nc3ccccc3[nH]2)c1C (stereo not given) |  |  |  | 464 | 450 | 449 | 467 | 475 | 460
CC(=O)OCC(=O)[C@@]12OC(C)(C)O[C@@H]1C[C@H]3[C@@H]4C[C@H](F)C/5=C/C(=O)/C=C\[C@]5(C)[C@@]4(F)[C@@H](O)C[C@]23C |  |  |  | 393 | 370 | 344 | 474 | 440 | 420
O=[S+]([O-])(O)c1ccc2cc(/N=N/c3cc([S+](=O)([O-])O)c4cccnc4c3O)ccc2c1 |  |  |  | 462 | 463 | 458 | 455 | 462 | 460
CNC(=O)c1ccc(N2C(=S)N(c3ccc(C#N)c(C(F)(F)F)c3)C(=O)C2(C)C)cc1F |  |  |  | 453 | 456 | 457 | 457 | 472 | 460
O=[N+]([O-])c1ccc(Nc2ccccc2-c2ccccc2)c2nonc12 |  |  |  | 432 | 432 | 433 | 451 | 432 | 418
CN1CCN(Cc2ccc(NC(=O)Nc3ccc(Oc4cc(NC(=O)C5CC5)ncn4)cc3)cc2C(F)(F)F)CC1 |  |  |  | 285 | 289 | 291 | 271 | 278 | 275
O=C(O)[C@@H](c1ccc(OCc2ccc3ccccc3n2)cc1)C1CCCC1 |  |  |  | 450 | 435 | 458 | 466 | 470 | 454
C=CC(=O)Nc1cccc(Oc2nc(Nc3ccc(N4CCN(C)CC4)cc3OC)ncc2Cl)c1 |  |  |  | 374 | 351 | 365 | 325 | 355 | 362
Cn1cnc(-c2cc3nccc(Oc4ccc(NC(=S)NC(=O)Cc5ccccc5)cc4F)c3s2)c1 |  |  |  | 391 | 374 | 395 | 393 | 395 | 397
COc1ccc(C(=O)CC(=O)c2ccc(C(C)(C)C)cc2)cc1 |  |  |  | 471 | 473 | 476 | 449 | 458 | 465
C[C@H](NC(=O)Cc1cc(F)cc(F)c1)C(=O)N[C@@H]1C(=O)N(C)c2ccccc2-c2ccccc21 | 373 | 309 | 362 |  |  |  | 386 | 417 | 434
FC1=CC=C(CN2\C=C/C=C(/C(=O)N[C@@H](COC3=CC4=C(NC(=O)N4)C=C3)C5=CC=CC=C5)C2=O)C=C1F | 373 | 409 | 365 | 430 | 365 | 375 |  |  | 
